Measurements as given in patent publication US4656178A (priority 1985, dated 1987).
Structures can show the parent of a compound that is named as a salt. Where two headings read alike, the source gives them in different places.

Key:
solubility = assay type: physicochemical
Description: The aerial portion and roots (tubers) of the plant Acontium leucostomum are disintegrated. The disintegrated air-dry raw material is wetted with a 3% solution of sodium carbonate and 1 hour thereafter is poured with chloroform. 12 hours afterwards the chloroform is drained and the plant is treated with a fresh portion of chloroform. There are thus obtained 8 extracts which are combined and evaporated under vacuum to a small volume. From the concentrated chloroform extract the alkaloids are recovered by means of a 2% sulphuric acid. The combined acid extracts are washed with chloroform, alkalinized by soda and extracted with chloroform. The chloroform extract is evaporated and the residue is treated with acetone to give a commercial product--lappaconitine which is recrystallized from methanol. Methanolic solution of lappaconitine and hydrobromic acid are mixed. […] M.p. is 216°-220° C., [α]D^24 =+27 (alcohol); C32 H44 O8 N2.HBr, molecular weight= 664.9.

[1] = 6-month histological toxicity, rabbits; assay type: in vivo; settings: intravenous, 0.1 and 0.5 mg/kg, 6 months
aconitine arrhythmia [2] = assay type: in vivo, rats
Description: (§1) The atrioventricular arrhythmia caused by aconitine is one of the most reliable models for forecasting the efficiency of the antiarrhythmic action of the novel preparation in clinics. The experiments were conducted on both narcotized and non-narcotized animals. The preparation was administered per os, intramuscularly, intraperitoneally and intravenously 5 to 15 minutes prior to or 3-5 minutes after the administration of aconitine.
The antiarrhythmic activity of the pharmaceutical composition according to the present invention upon administration thereof against the background of a developing aconitine arrhythmia (therapeutic effect) was studied on 110 narcotized rats. The preparation was intravenously administered at intervals of 3-6 minutes against the background of the originated arrhythmia.

[3] = tested on: cardiac rhythm disturbances; assay: clinical study in patients with cardiac rhythm disturbances; assay type: in vivo, human
Description: The clinical study of the preparation according to the present invention was carried out on 200 patients suffering from various diseases accompanied by different cardiac rhythm disturbances (ischemic heart disease, diverse kinds of cardiomyopathy). The preparation was administered intravenously using 1-2 ampoules (0.5% solution of the preparation, 2 ml) and per os in tablets of 50 mg each (2-3 tablets a day during the first 2 days and 1-2 tablets a day during all following days). ECG characteristics, arterial pressure, heart beat rate and various parameters of hemodynamics were recorded.

[4] = diuresis and urine of rats; assay type: in vivo; settings: 0.5-1 mg/kg
frog's heart = assay: amplitude of cardiac contractions of isolated frog's heart (Schtraube); settings: concentration of 10^-6 -5.10^-5 g/ml
Description: To find out a negative inotropic effect on the heart tissue, two series of experiments have been carried out:
(1) the study of the effect of the preparation of this invention on the amplitude of the cardiac contractions of a frog's heart isolated according to Schtraube;

lethal dose in dogs = assay type: in vivo; settings: intravenous
Description: The resorptive effect and toxicity of the preparation according to the present invention were studied on mice, rats, rabbits and dogs.
In doses of 5-6 mg/kg intravenously the preparation according to the present invention causes death of dogs and in doses of 3-4 mg/kg it is lethal for rabbits.

[5] = tested on: calcium channels of the membrane of neurons; assay: ion currents through the somatic membrane of mollusc neurons: calcium channels; assay type: cell-based, mollusca
Description: The study of the effect produced by the preparation of the present invention on ion currents through the somatic membrane of neurons has shown that it selectively interacts with calcium and potassium channels of the membrane of neurons of mollusca, whereby the currents along these channels are suppressed.

[6] = tested on: cardiac arrhythmia caused by ligation of the descending branch of the left coronary artery; assay: cardiac arrhythmia caused by ligation of the descending branch of the left coronary artery (Harris method) in dogs; assay type: in vivo
Description: The effect of the preparation according to the present invention on the cardiac arrhythmia caused by ligation of the descending branch of the left coronary artery by the Harris method was studied in experiments on dogs. The preparation according to the present invention was intravenously administered on the first and second post-operative days. Preliminarily, prior to every experiment 30 to 45 minutes before the administration of the preparation the background changes of the dogs' electrocardiogram (ECG) were recorded. […] In 40% thereof a full suppression of ectopic contractions was noticed for 3-3.5 hours, whereafter arrhythmia appeared with the intensity thereof not reaching the initial background during 7 hours.

aconitine arrhythmia [7] = assay: prevention of aconitine arrhythmia in rats and dogs; assay type: in vivo
Description: as §1
The duration of the antiarrhythmic action of the preparation was studied on rats intravenously administered with aconitine 1, 2, 4, 6, 24 and 48 hours after the preparation administration per os.

[8] = tested on: cardiac conductive system; assay type: in vivo, narcotized rats, cats, intact rabbits and dogs
Description: To investigate the character of the effect produced on the functions of the cardiac conductive system by the preparation according to the present invention, the ECG changes appearing in narcotized rats, cats, intact rabbits and dogs under the action of the preparation of this invention were studied. […] The effect of the preparation is retained for a long time.

[9] = infiltration anesthesia in rabbits (intracutaneous); assay type: in vivo; settings: 0.01-0.05% and 0.1% solutions
Description: The local anesthetic effect of the preparation was studied on 14 intact rabbits. […] The results of the experiments on determination of the ability of the preparation to cause infiltration anesthesia have shown that 10-15 minutes after intracutaneous administration, to rabbits, of 0.01-0.05% and 0.1% solutions of the preparation anesthesia occurs which is characterized by an increased threshold of a pain irritation; the duration of the effect is 20 to 48 hours. Under the same conditions of the experiment, the local anesthetic effect of a 0.5% solution of novocaine lasts for 90 minutes on the average.

CCN1CC2(OC(=O)c3ccccc3NC(C)=O)CCC(OC)C34C1C(CC23)C1(O)CC(OC)C2CC4C1(O)C2OC (centres unmarked) [lappaconitine hydrobromide]
solubility (solubility): soluble in water, alcohol, better in methanol
destructive changes of inner organs and tissues [1]: no destructive changes on the part of inner organs and tissues
animals with complete restoration of normal sinus rhythm (aconitine arrhythmia [2]; 0.1 mg/kg intravenously): 50%
time to restoration of normal sinus rhythm (aconitine arrhythmia [2]; 0.1 mg/kg, control arrhythmia lasts 120 minutes): 30 to 35 min
complete elimination of arrhythmia and restoration of correct sinus rhythm (aconitine arrhythmia [2]; 0.3 to 0.5 mg/kg): complete elimination of arrhythmia and restoration of the correct sinus rhythm in all the animals
time to complete elimination of arrhythmia (aconitine arrhythmia [2]; 0.3 to 0.5 mg/kg): 1 to 2 min
antiarrhythmic index (LD50/ED50) (aconitine arrhythmia [2]; against background of developing aconitine arrhythmia): 59
efficiency by form ([3]; course treatment): more efficient for course treatment in tabletted forms
contraindications ([3]; human, in vivo): No contraindications
side effects (hypotension, changed heart beat rate, pulse, breathing) ([3]; patients): not observed
antiarrhythmic effect in patients ([3]; patients with stable form of ventricular and supraventricular extrasystole): pronounced antiarrhythmic effect
side effects in some cases ([3]; per os, intramuscular or intravenous): weakness or giddeness
time after which side effects pass ([3]; weakness or giddeness): 10 to 15 min
effect on diuresis [4]: no effect on diuresis of rats
protein and blood in urine ([4]; sulphanylic acid test and benzidine test): not detected
negative inotropic effect, isolated heart (frog's heart): does not provide a negative inotropic effect
lethal dose (lethal dose in dogs): 5 to 6 mg/kg
effect on currents along calcium channels [5]: suppressed
animals with antiarrhythmic effect ([6]; 0.5 mg/kg intravenously): 86%
animals with 100% antiarrhythmic effect over 5 hours ([6]; 1 mg/kg): 60%
animals with full suppression of ectopic contractions for 3-3.5 hours ([6]; 1 mg/kg): 40%
animals with full inhibition of ventricular extrasystole ([6]; 1 mg/kg intravenously): 100%
duration of full suppression of ectopic contractions ([6]; 1 mg/kg, in 40% of the animals): 3 to 3.5 h
time during which reappearing arrhythmia does not reach the initial background ([6]; 1 mg/kg, in 40% of the animals): 7 h
duration of 100% antiarrhythmic effect ([6]; 1 mg/kg, in 60% of the animals): over 5 hours
heart beat rate ([6]; accompanying reduction or arresting of arrhythmia, all experiments): reduction of the heart beat rate
time of appearance of antiarrhythmic effect ([6]; after intravenous administration): 5 to 15 min
activity relative to novocainamide (times more active) ([6]; dog, in vivo): 70 times
duration and rapidity of effect relative to novocainamide ([6]; dog, in vivo): considerably superior to it in the duration of the effect, but inferior to novocainamide in the rapidity of occurrence of the antiarrhythmic effect
relationship of effect to dose ([6]; dog, in vivo): in a direct relationship with the administered dose
duration of antiarrhythmic action (aconitine arrhythmia [7]; aconitine model): up to 24 hours
animals in which development of aconitine arrhythmia is fully prevented (aconitine arrhythmia [7]; intravenous, 0.2-0.3 mg/kg, narcotized rats and dogs): 100%
animals in which development of aconitine arrhythmia is fully prevented (aconitine arrhythmia [7]; peroral, 1-2 mg/kg, dogs and intact rats): 100%
effect on ECG ([8]; 1-2 mg/kg): increase the ranges PQ, QRS, QT, insignificantly R-R; the ripple S is deepened, the amplitude of the ripple T is uniformly increased
effect on myocardial conductivity and sinus node automatism ([8]; in vivo): lowers conductivity of the myocardium and, to a lesser extent, automatism of the sinus node
sublethal and lethal doses ([8]; intravenous): 4 to 6 mg/kg
effect on ECG ([8]; intravenous, 0.5 mg/kg): deceleration of the atrioventricular conductivity and a certain rarification of the rhythm
effect on ECG ([8]; intravenous, 4-6 mg/kg): growing inhibition of conductivity along the cardiac conducting system
effect on ECG ([8]; rats, intravenous, 0.05 to 0.25 mg/kg): does not cause in rats any substantial effect on the ECG
duration of infiltration anesthesia [9]: 20 to 48 h
onset of infiltration anesthesia ([9]; intracutaneous): 10 to 15 min
